Test results: patent US3948899A, “α-Cyanobenzylpiperazines and a process for producing the same” (Fuji Chemical Industry Co., Ltd., priority 1973, dated 1976)

Key:
mongrel adult dogs [1] = experiment: Effects on arterial mean blood pressure (thoractomized anesthetized dogs, i.v.); type: in vivo, dog
Method: (§1) All experiments were conducted on male and female thoractomized mongrel adult dogs weighing about 10 Kg under anesthesia with pentobarbital sodium.
(§2) Arterial blood pressure was measured by pressure transducer (Nippon Koden MPU-0.5) connected with the cannula inserted from exposed carotid artery into aorta. Aortic blood flow was determined by means of electromagnetic flow meter (Nippon Koden MF-5) mounted at an origin of aorta. Coronary sinus out flow and coronary sinus oxygen tension were assessed by means of electromagnetic flow meter (Nippon Koden MF-5) and Po2 Macro electrode (Beckmann Moder 160-C), respectively, using Morawitz cannulization technique. Heart rate was measured by cardiotachometer (Nippon Koden RT-2) synchronized with systolic blood pressure of aorta.

mongrel adult dogs [2] = experiment: Effects on aortic blood flow (thoractomized anesthetized dogs, i.v.); type: in vivo, dog
Method: as §1, §2

mongrel adult dogs [3] = experiment: Effects on coronary sinus out flow (thoractomized anesthetized dogs, i.v.); type: in vivo, dog
Method: as §1, §2

mongrel adult dogs [4] = experiment: Effects on the work done by the left ventricle (thoractomized anesthetized dogs, i.v.); type: in vivo, dog
Method: as §1, §2
The work done by the left ventricle is calculated according to the following equation: […]

mongrel adult dogs [5] = experiment: Effects on heart rate (thoractomized anesthetized dogs, i.v.); type: in vivo, dog
Method: as §1, §2

dd-0train male mice = experiment: Acute toxicity (LD50; per os, mice); type: in vivo
Method: (§3) 7. Acute Toxicity (See Table 7) Acute toxicity (LD50; per os, mice) was measured in dd-0train male mice.

[6] = Acute toxicity (LD50; per os, mice); type: in vivo; conditions: mouse, in vivo, po, dd-0train male mice
Method: as §3

mongrel adult dogs [7] = experiment: Effects on coronary sinus oxygen tension (thoractomized anesthetized dogs, i.v.); type: in vivo, dog
Method: as §1, §2

## CCOC(=O)N1CCN(C(C#N)c2ccc(OC)c(OC)c2)CC1 (stereo not drawn) [Compound B-01, N-(α-cyano-3,4-dimethoxybenzyl)-N'-ethoxycarbonyl piperazine]
Mongrel adult dogs [1]; i.v. 2.0 mg/Kg, 15 min
  Changes(%) of basal values, arterial mean blood pressure: -4.5%
Mongrel adult dogs [1]; i.v. 2.0 mg/Kg, 25 min
  Changes(%) of basal values, arterial mean blood pressure: -4.0%
Mongrel adult dogs [1]; i.v. 6.0 mg/Kg, 15 min
  Changes(%) of basal values, arterial mean blood pressure: -6.3%
Mongrel adult dogs [1]; i.v. 6.0 mg/Kg, 25 min
  Changes(%) of basal values, arterial mean blood pressure: -3.0%
Mongrel adult dogs [1]; i.v. 20.0 mg/Kg, 15 min
  Changes(%) of basal values, arterial mean blood pressure: -17.7%
Mongrel adult dogs [1]; i.v. 20.0 mg/Kg, 25 min
  Changes(%) of basal values, arterial mean blood pressure: -17.4%
Mongrel adult dogs [1]; i.v., dogs
  Duration of hypotensive effect (in words): longer duration
  Effect on arterial mean blood pressure (in words): hypotensive effects
Mongrel adult dogs [2]; i.v. 2.0 mg/Kg, 15 min
  Changes(%) of basal values, aortic blood flow: +2.0%
Mongrel adult dogs [2]; i.v. 2.0 mg/Kg, 25 min
  Changes(%) of basal values, aortic blood flow: +1.0%
Mongrel adult dogs [2]; i.v. 6.0 mg/Kg, 15 min
  Changes(%) of basal values, aortic blood flow: +0.1%
Mongrel adult dogs [2]; i.v. 6.0 mg/Kg, 25 min
  Changes(%) of basal values, aortic blood flow: +1.0%
Mongrel adult dogs [2]; i.v. 20.0 mg/Kg, 15 min
  Changes(%) of basal values, aortic blood flow: +3.6%
Mongrel adult dogs [2]; i.v. 20.0 mg/Kg, 25 min
  Changes(%) of basal values, aortic blood flow: +1.6%
Mongrel adult dogs [2]; i.v., dogs
  Increase of aortic blood flow: 2-8%
  Later effect on aortic blood flow / its duration (in words): longer duration
Mongrel adult dogs [2]; i.v., dogs, immediately
  Effect on aortic blood flow immediately after administration (in words): no decrease in blood flow immediately after medication
Mongrel adult dogs [3]; i.v. 2.0 mg/Kg, 15 min
  Changes(%) of basal values, coronery sinus out flow: +4.4%
Mongrel adult dogs [3]; i.v. 2.0 mg/Kg, 25 min
  Changes(%) of basal values, coronery sinus out flow: +3.0%
Mongrel adult dogs [3]; i.v. 6.0 mg/Kg, 15 min
  Changes(%) of basal values, coronery sinus out flow: +10.9%
Mongrel adult dogs [3]; i.v. 6.0 mg/Kg, 25 min
  Changes(%) of basal values, coronery sinus out flow: +8.0%
Mongrel adult dogs [3]; i.v. 20.0 mg/Kg, 15 min
  Changes(%) of basal values, coronery sinus out flow: +38.2%
Mongrel adult dogs [3]; i.v. 20.0 mg/Kg, 25 min
  Changes(%) of basal values, coronery sinus out flow: +20.3%
Mongrel adult dogs [3]; i.v., dogs
  Dose dependence and duration of effect on coronary sinus out flow (in words): proportioned to doses and of longer duration
  Effect on coronary sinus out flow (in words): marked increasing effect on coronary sinus out flow
Mongrel adult dogs [4]; i.v. 2.0 mg/Kg, 1 min
  Changes(%) of basal values, work of left ventricle: +2.7%
Mongrel adult dogs [4]; i.v. 2.0 mg/Kg, 5 min
  Changes(%) of basal values, work of left ventricle: +0.8%
Mongrel adult dogs [4]; i.v. 2.0 mg/Kg, 10 min
  Changes(%) of basal values, work of left ventricle: -2.0%
Mongrel adult dogs [4]; i.v. 2.0 mg/Kg, 15 min
  Changes(%) of basal values, work of left ventricle: -2.6%
Mongrel adult dogs [4]; i.v. 2.0 mg/Kg, 20 min
  Changes(%) of basal values, work of left ventricle: -2.9%
Mongrel adult dogs [4]; i.v. 2.0 mg/Kg, 25 min
  Changes(%) of basal values, work of left ventricle: -3.1%
Mongrel adult dogs [4]; i.v. 2.0 mg/Kg, 30 min
  Changes(%) of basal values, work of left ventricle: -3.6%
Mongrel adult dogs [4]; i.v. 2.0 mg/Kg, imm.
  Changes(%) of basal values, work of left ventricle: -3.6%
Mongrel adult dogs [4]; i.v. 6.0 mg/Kg, 1 min
  Changes(%) of basal values, work of left ventricle: +2.3%
Mongrel adult dogs [4]; i.v. 6.0 mg/Kg, 5 min
  Changes(%) of basal values, work of left ventricle: -1.7%
Mongrel adult dogs [4]; i.v. 6.0 mg/Kg, 10 min
  Changes(%) of basal values, work of left ventricle: -5.9%
Mongrel adult dogs [4]; i.v. 6.0 mg/Kg, 15 min
  Changes(%) of basal values, work of left ventricle: -8.3%
Mongrel adult dogs [4]; i.v. 6.0 mg/Kg, 20 min
  Changes(%) of basal values, work of left ventricle: -5.3%
Mongrel adult dogs [4]; i.v. 6.0 mg/Kg, 25 min
  Changes(%) of basal values, work of left ventricle: -2.0%
Mongrel adult dogs [4]; i.v. 6.0 mg/Kg, 30 min
  Changes(%) of basal values, work of left ventricle: -2.8%
Mongrel adult dogs [4]; i.v. 6.0 mg/Kg, imm.
  Changes(%) of basal values, work of left ventricle: -0.1%
Mongrel adult dogs [4]; i.v. 20.0 mg/Kg, 1 min
  Changes(%) of basal values, work of left ventricle: -10.9%
Mongrel adult dogs [4]; i.v. 20.0 mg/Kg, 5 min
  Changes(%) of basal values, work of left ventricle: -8.4%
Mongrel adult dogs [4]; i.v. 20.0 mg/Kg, 10 min
  Changes(%) of basal values, work of left ventricle: -9.2%
Mongrel adult dogs [4]; i.v. 20.0 mg/Kg, 15 min
  Changes(%) of basal values, work of left ventricle: -14.8%
Mongrel adult dogs [4]; i.v. 20.0 mg/Kg, 20 min
  Changes(%) of basal values, work of left ventricle: -14.3%
Mongrel adult dogs [4]; i.v. 20.0 mg/Kg, 25 min
  Changes(%) of basal values, work of left ventricle: -16.1%
Mongrel adult dogs [4]; i.v. 20.0 mg/Kg, 30 min
  Changes(%) of basal values, work of left ventricle: -14.1%
Mongrel adult dogs [4]; i.v. 20.0 mg/Kg, imm.
  Changes(%) of basal values, work of left ventricle: -8.5%
Mongrel adult dogs [4]; i.v., dogs
  Duration of effect on the work of the left ventricle (in words): longer duration
  Effect on the work of the left ventricle (in words): decrease in the work of the left ventricle
Mongrel adult dogs [5]; i.v. 2.0 mg/Kg, 15 min
  Changes(%) of basal values, heart rate: 0%
Mongrel adult dogs [5]; i.v. 2.0 mg/Kg, 25 min
  Changes(%) of basal values, heart rate: 0%
Mongrel adult dogs [5]; i.v. 6.0 mg/Kg, 15 min
  Changes(%) of basal values, heart rate: +0.6%
Mongrel adult dogs [5]; i.v. 6.0 mg/Kg, 25 min
  Changes(%) of basal values, heart rate: +1.0%
Mongrel adult dogs [5]; i.v. 20.0 mg/Kg, 15 min
  Changes(%) of basal values, heart rate: -2.6%
Mongrel adult dogs [5]; i.v. 20.0 mg/Kg, 25 min
  Changes(%) of basal values, heart rate: -6.3%
Mongrel adult dogs [5]; i.v., dogs
  Effect on heart rate (in words): sight negative chromotropic effect
dd-0train male mice; dd-0train male mice
  LD50: 2200 mg/kg
dd-0train male mice; mice
  Acute toxicity relative to Vastarel F (in words): significantly less toxicity than that of Vastarel F
[6]
  LD50: 2200 mg/kg
Mongrel adult dogs [7]; i.v. 2.0 mg/Kg, 15 min
  Changes(%) of basal values, coronary sinus oxygen tension: +12.0%
Mongrel adult dogs [7]; i.v. 2.0 mg/Kg, 25 min
  Changes(%) of basal values, coronary sinus oxygen tension: +12.5%
Mongrel adult dogs [7]; i.v. 6.0 mg/Kg, 10 min
  Changes(%) of basal values, coronary sinus oxygen tension: +3.0%
Mongrel adult dogs [7]; i.v. 6.0 mg/Kg, 15 min
  Changes(%) of basal values, coronary sinus oxygen tension: +25.5%
Mongrel adult dogs [7]; i.v. 6.0 mg/Kg, 25 min
  Changes(%) of basal values, coronary sinus oxygen tension: +16.2%
Mongrel adult dogs [7]; i.v. 20.0 mg/Kg, 5 min
  Changes(%) of basal values, coronary sinus oxygen tension: +89.0%
Mongrel adult dogs [7]; i.v. 20.0 mg/Kg, 15 min
  Changes(%) of basal values, coronary sinus oxygen tension: +90.1%
Mongrel adult dogs [7]; i.v. 20.0 mg/Kg, 25 min
  Changes(%) of basal values, coronary sinus oxygen tension: +63.0%
Mongrel adult dogs [7]; i.v., dogs
  Duration of effect on coronary sinus oxygen tension (in words): proportioned to an increase in coronary sinus out flow and of longer duration
  Effect on coronary sinus oxygen tension (in words): significant increase in coronary sinus oxygen tension
